# The source made the active and inactive calls. The rule behind the calls is not given here.
# Experiments:
# [1] = system: Escherichia phage T7; test: Inhibition of T7 RNA polymerase transcription at 20 uM after irradiation; assay type: functional
# [2] = system: DNA; test: Binding affinity to calf thymus DNA at 2 uM by thermal denaturation study; assay type: nucleic-acid assay; settings: Bos taurus
# [3] = system: Escherichia coli; test: Induction of pBR322 DNA interstand cross link at 100 uM by agarose gel electrophoresis assay
# [4] = system: Escherichia phage T7; test: Inhibition of T7 RNA polymerase transcription at 10 uM after irradiation; assay type: functional
# [5] = system: Escherichia phage T7; test: Inhibition of T7 RNA polymerase transcription at 5 uM after irradiation; assay type: functional
# [6] = system: Escherichia coli; test: Induction of pBR322 DNA interstand cross link at pH 7.7 by agarose gel electrophoresis assay
# [7] = system: Escherichia coli; test: Induction of pBR322 DNA interstand cross link at 5 uM by agarose gel electrophoresis assay
# [8] = system: Escherichia coli; test: Induction of pBR322 DNA interstand cross link at 1 uM by agarose gel electrophoresis assay
Activity [1],ΔTm [2],Activity [3],Activity [4],Activity [5],Activity [6],Activity [7],Activity [8],Compound
inactive,0.5 °C,inactive,–,–,–,–,–,C[N+](C)(C)Cc1cc(CCC(=O)NCCNC(=O)CCc2ccc(O)c(C[N+](C)(C)C)c2)ccc1O
–,7.4 °C,–,Active,Active,–,–,–,COc1cc2nc(Nc3ccc(O)c(C[N+](C)(C)C)c3)nc(N)c2cc1OC
–,5.8 °C,–,Active,Active,–,–,–,COc1cc2nc(Cl)nc(Nc3ccc(O)c(C[N+](C)(C)C)c3)c2cc1OC
–,8.6 °C,Active,Active,Active,Active,46%,28%,COc1cc2nc(Nc3ccc(O)c(C[N+](C)(C)C)c3)nc(Nc3ccc(O)c(C[N+](C)(C)C)c3)c2cc1OC
